Reference: patent publication US9522928B2, “Mannosylated compounds useful for the prevention and the treatment of infectious diseases” (UNIVERSITE DE STRASBOURG, priority 2011, dated 2016)
“Also recorded” adds a separate entry of the source.

Key:
DC-SIGN CRD = target: T1, DC-SIGN CRD (Homo sapiens, UniProt Q9NNX6); assay: Surface plasmon resonance (SPR) binding to immobilised DC-SIGN CRD
T1 construct: human DC-SIGN (Lys62-Ala404, from R§D Systems); purchased R&D Systems ('R§D Systems' [sic])
T1 sequence (Q9NNX6 62-404): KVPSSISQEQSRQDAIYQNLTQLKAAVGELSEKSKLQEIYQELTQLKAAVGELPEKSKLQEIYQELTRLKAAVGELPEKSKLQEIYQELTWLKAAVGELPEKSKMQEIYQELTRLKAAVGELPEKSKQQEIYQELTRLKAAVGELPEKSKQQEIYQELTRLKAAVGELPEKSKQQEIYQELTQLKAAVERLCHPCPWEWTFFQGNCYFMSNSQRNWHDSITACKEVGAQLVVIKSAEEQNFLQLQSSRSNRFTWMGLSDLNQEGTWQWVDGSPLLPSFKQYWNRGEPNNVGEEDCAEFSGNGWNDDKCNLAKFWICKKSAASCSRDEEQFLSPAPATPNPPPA
Experimental: SPR experiments were performed using a Biacore 3000. […] Biosensor assays were performed with HEPES-buffered saline (10 mM HEPES, 150 mM sodium chloride, pH 7.4) containing 0.005% surfactant P20 and 5 mM CaCl2 as a running buffer. All binding experiments were carried out at 25° C. with a constant flow rate of 20 μl/min. The different compounds dissolved in the running buffer (0.39 to 50 μM) were injected for 3 min, followed by a dissociation phase of 3 min. The sensor chip surface was regenerated after each experiment by injecting 10 μL of EDTA 0.5 M pH 8.0. A simple channel activated by EDC/NHS and deactivated with ethanolamine was used as control. The kinetic parameters were calculated using the BlAeval 4.1 software. Analysis was performed using the simple Langmuir binding model with separate ka/kd (kon/koff). The specific binding profiles were obtained after subtracting the response signal from the control channel and from blank-buffer injection. The fitting to each model was judged by the chi square value and randomness of residue distribution compared to the theoretical model (Langmuir binding 1:1).
The binding affinity of mannoside derivatives for the carbohydrate recognition domain (CRD) of DC-SIGN was assessed by surface plasmon resonance (SPR).
A CM5 sensor chip was functionalized with the DC-SIGN CRD, and increasing concentrations of the various compounds, mannan as a positive control and octaethyleneglycol (OEG) as a negative control, were injected over the chip surface. The association (kon) and dissociation (koff) rate constants and the resulting dissociation equilibrium constant (Kd=koff/kon) for each assessed compound were determined (see Table 1 hereunder).

[1] = Hydrodynamic diameter of micelles (Zetasizer Nano ZS); assay type: physicochemical; details: in water at 0.5 mg/ml
Experimental: DiManinsatC24 was prepared according a procedure similar to that used for the preparation of TriDiManC24 except that: • pentacosanoic acid was replaced by 10,12-pentacosadiynoic acid, and • before the coupling with 10,12-pentacosadiynoic acid, the benzyl groups of compound 33 were replaced by acetyl group so as to provide compound 108 (as illustrated in FIG. 3E). ^1H NMR δ(ppm) (MeOD, 400 MHz) 4.87 (s, 3H), 4.73 (s, 3H), 3.64-3.50 (m, 14H), 3.46-3.20 (m, 76H), 2.97-2.93 (m, 6H), 2.33 (t, 6H, J=6.8 Hz), 2.09-1.96 (m, 6H), 1.08-1.05 (m, 32H), 0.66 (t, 3H, J=6.8 Hz). ^13C NMR δ (ppm) (MeOD, 100 MHz) 173.7, 168.8, 104.2, 101.2, 80.6, 80.4, 75.1, 74.7, 72.5, 72.2, 72.1, 71.9, 71.8, 71.7, 71.6, 71.4, 69.4, 69.1, 68.9, 68.7, 68.6, 68.0, 63.2, 63.1, 42.2, 37.0, 34.8, 33.7, 33.1, 30.8, 30.7, 30.6, 30.5, 30.4, 30.2, 29.5, 28.1, 27.0, 26.0, 23.7, 19.7, 14.4. IR (neat film, cm^−1): 3353, 2924, 1716, 1636, 1350, 1182, 1095, 1035, 1009, 837, 669. • Determination of critical micelle concentrations (CMCs) and size of particles. The hydrodynamic diameters of micelles of glycolipids were measured in water using a Zetasizer Nano ZS system (Malvern Instruments). The CMCs were measured using pyrene as an extrinsic fluorescent probe and were carried out as described (Perino et al., 2011). Briefly, a range of glycolipid samples were dissolved in water (1 ml), with concentrations ranging from 1.0 to 0.001 mg/ml. A stock solution of pyrene (1 mM) was prepared in dimethyl sulfoxyde and was added to each sample. Fluorescent emission of pyrene was measured at 25° C. using a Fluorolog spectrofluorometer (Jobin Yvon, Horiba). The intensities of fluorescence emission were determined at 374 nm (I374) and at 383 nm (I383), with an excitation at a 339 nm wavelength. The ratios I374/I383 were calculated and plotted against the glycolipid concentration. The CMC value was determined at the intersection of the two straight lines.

HIV-1 R5 = HIV-1 R5 trans-infection of MAGI-CCR5 cells mediated by DCs; assay type: cell-based; details: for inhibition of HIV-1 trans-infection (in words): HIV-1 R5 where stated; for IC50: Human immunodeficiency virus 1, MAGI-CCR5, read-out: IC50 of HIV-1 trans-infection
Experimental: ManC1, […] (comparative) and compounds of the invention (ManC24, ManC17, TriManC24, TriDiManC24, TriManinsatC24 and ManinsatC24) were serially diluted in water. Human DCs (1×10^5 in 200 μl ) were pre-treated with different concentrations of compounds, or mannan (Sigma) or culture medium alone, in RPMI 1640 medium containing 10% FBS for 45 min at 37° C., prior infection with HIV-1 (100 ng of p24Gag) for 3 h. Excess free virus and molecules were removed by three washes. DCs were then cocultured with MAGI -CCR5 cells (1×10^5) at 37° C. plated in a 48-well plate. After two days, viral infection of MAGI-CCR5 cells was quantitated following beta-galactosidase assays and enumerating blue cells by light microscopy.
The IC50 were determined by serial dilution of each compound. The trans-infection assays were repeated a minimum of three times, and the IC50 determined using KaleidaGraph.
To investigate the ability of the compounds of the invention to inhibit HIV-1 trans infection, we chose to infect human DCs in order to best mimic in vivo conditions. Human DCs were exposed to different compounds (namely, Mannan (control), ManC1 (comparative), ManC11 (comparative), ManC17, ManC24, TriManC24, TriDiManC24, ManinsatC24 and TriManinsatC24) for 45 min at 37° C., before inoculation with HIV-1 (strains R5 and X4) for 3 hours. After extensive washings to remove unbound virions and mannosides, DCs were then co-cultured with MAGI-CCR5 cells. This procedure allows precise quantification of HIV-1 replication in reporter MAGI-CCR5 cells by detection of beta-galactosidase activity. These cells express an integrated copy of the HIV long terminal repeat (LTR) fused to the beta-galactosidase reporter gene, and express the CD4 receptor and the CCR5 and CXCR4 co-receptors, required for entry of HIV-1 R5 and X4 respectively. Upon viral entry leading to viral Tat expression and activation of the LTR, these cells permit quantification of HIV trans-infection after two days.

Row | Compound | binding to DC-SIGN CRD (in words) (DC-SIGN CRD) | hydrodynamic diameter of micelles [1] [nm] | inhibition of HIV-1 trans-infection (in words) (HIV-1 R5) | IC50 (HIV-1 R5) [µM] | Kon (M^−1 · s^−1) (DC-SIGN CRD; 25° C., Langmuir 1:1) | koff (DC-SIGN CRD; 25° C., Langmuir 1:1) [s⁻¹] | kon (DC-SIGN CRD; 25° C., Langmuir 1:1) [M⁻¹ s⁻¹] | KD (μM) (DC-SIGN CRD; Kd=koff/kon)
1 | mannan [reference compound] | bound efficiently |  |  |  |  |  |  | 
2 | CCCCCCCCCCCCCCCCCC(=O)NCCOCCOCCOCC(=O)NCCOCCOCCOCCOC1OC(CO)C(O)C(O)C1O (stereo not drawn) [ManC17] | bound with a low affinity | 17 | reduced trans-infection in a dose -dependent manner; also recorded: able to inhibit trans-infection to a similar extent; also recorded: inhibited in a dose -dependent manner | 120 | Low binding |  |  | 
3 | CCCCCCCCCCCCCCCCCCCCCCCCC(=O)NCCOCCOCCOCC(=O)NCCOCCOCCOCCOC1OC(CO)C(O)C(O)C1O (stereo not drawn) [ManC24] |  | 17 | reduced trans-infection in a dose -dependent manner; also recorded: able to inhibit trans-infection to a similar extent; also recorded: inhibited in a dose -dependent manner | 120 |  | 9e-05 | 273 | sub-micromolar range
